These results are taken from publication PMC6222791, “(−)-Asarinin from the Roots of Asarum sieboldii Induces Apoptotic Cell Death via Caspase Activation in Human Ovarian Cancer Cells” (Molecules : A Journal of Synthetic Chemistry and Natural …, 2018).

Like-named read-outs stand apart in the source and are kept apart here. Where only a bound is given, the exact number is not on record here.

Data set [1] has as its system SKOV3 cells. The data set can be described thus: MTT assay with caspase inhibitors on (−)-asarinin (1)-induced cell death, SKOV3. The format is cell-based, human. The note with it: SKOV3, inhibitor 50 μM pretreated 30 min, then (−)-asarinin (1) 60 μM 48 h.
In data set [2] the test system is A2780 cells. Put plainly: MTT assay with caspase inhibitors on (−)-asarinin (1)-induced cell death, A2780. Format: cell-based, human. The note with it: A2780, inhibitor 50 μM pretreated 30 min, then (−)-asarinin (1) 40 μM 48 h. On the technique in general: Tetrazolium dyes change colour on reduction, which living cells bring about.
A short description of data set [3]: MTT cytotoxicity assay, IOSE80PC. The note with it: human. On the procedure:
(§1) Human ovarian cancer cell lines (A2780 and SKOV3 cells) were obtained from the American Type Culture Collection (ATCC), and immortalized ovarian surface epithelial cell lines (IOSE80PC) were provided by Dr. N. Auersperg (University of British Columbia, Vancouver, British Columbia, Canada) and Dr. A. Godwin (Fox Chase Cancer Center, Philadelphia, PA, USA).
(§2) A MTT assay was performed to evaluate the cell viability. The MTT was obtained from Molecular Probes Inc. (Eugene, OR, USA). Briefly, the cells (1.0 × 10^5/well) were seeded in a 96-well plate and incubated for 24 h. […] MTT solution was added into each well (final concentration; 0.5 mg/mL) and the plates were incubated for an additional 4 h. The medium was removed and 50 μL of dimethyl sulfoxide (DMSO) was added. The optical density was measured at 540 nm using a microplate spectrophotometer (SpectraMax; Molecular Devices, Sunnyvale, CA, USA). To investigate the involvement of caspases in asarinin (1)-induced cell death, a MTT assay was also performed using caspase inhibitors. The cells were pretreated with caspase inhibitors (50 μM) for 30 min, and treated with (−)-asarinin (1) (A2780, 40 μM; and SKOV3, 60 μM) for 48 h. Caspase-3 inhibitor z-DEVD-fmk, caspase-8 inhibitor z-IETD-fmk, and caspase-9 inhibitor z-LEHD-fmk were purchased from Calbiochem (Bad Soden, Germany).

The test system of data set [4] is A2780 cells. The data set can be described thus: MTT cytotoxicity assay, A2780. Format: cell-based. The conditions noted are these: Homo sapiens, read-out: IC50 (cytotoxicity).
In data set [5] the test system is SKOV3 cells. The data set can be described thus: MTT cytotoxicity assay, SKOV3. The format is cell-based. The conditions noted are these: Homo sapiens, read-out: IC50 (cytotoxicity).
The subject of the next data set is EBV-EA activation. Also noted: method as in PMID 9255419, doi:10.1016/S1572-5995(00)80047-2. The conditions noted are these: Raji cells; cited from earlier work.
In data set [6] the test system is caspase-8. The data set can be described thus: Western blot caspase activation, SKOV3. Format: cell-based, human. The note with it: SKOV3, 48 h, procaspase level by Western blot. On the procedure:
(§3) The cells were treated with (−)-asarinin (1) and incubated for 48 h. The cells were rinsed twice with ice-cold PBS and lysed with protein lysis buffer (Intron Biotechnology, Seoul, Korea) containing protease inhibitors (0.5 mM PMSF and 5 μg/mL aprotinin). The lysates were mixed with 5X sodium dodecyl sulfate (SDS) sample buffer and boiled for 5 min for denaturation. Total protein was run on 10–12% SDS-PAGE gels and electrotransferred onto a polyvinylidene difluoride (PVDF) membrane. The membrane was immunoblotted using specific primary antibodies overnight at 4 °C following blocking with 5% non-fat dry milk for 30 min–1 h. After washing, the membrane was incubated with horseradish peroxidase-conjugated secondary antibody (1:1000–2000) at room temperature for 1−2 h. After washing, immunepositive bands were visualized using an ECL chemiluminescent system and analyzed by Image Quant LAS-4000 (Fujifilm Life science, Tokyo, Japan). Anti-caspase-3 and b-actin antibodies were obtained from Santa Cruz Biotechnology (Santa Cruz, CA, USA). Caspase-9 antibody was purchased from Cell Signaling (Beverly, MA, USA). Caspase-8 antibody was obtained from BD Biosciences (San Jose, CA, USA).
(In western blotting, separated proteins are transferred to a membrane and probed.)

For data set [7], the system named is caspase-9. Put plainly: Western blot caspase activation, SKOV3. The format is cell-based, human. The conditions noted are these: SKOV3, 48 h, procaspase level by Western blot. On the procedure: as §3
In data set [8] the test system is caspase-3. Put plainly: Western blot caspase activation, SKOV3. Format: cell-based, human. The conditions noted are these: SKOV3, 48 h, procaspase level by Western blot. On the procedure: as §3
A further data set deals with IOSE80PC cells. Put plainly: in vitro. The procedure:
as §1, §2

For data set [9], the system named is SKOV3 cells. Put plainly: PI/Annexin V-FITC double staining, SKOV3. Format: cell-based, human. The note with it: SKOV3, 48 h, increased by up to. The procedure: (§4) Annexin V- FITC was obtained from BD Biosciences (San Jose, CA, USA). The cells were treated with (−)-asarinin (1) and incubated for 48 h. The cells were rinsed twice with ice-cold PBS and suspended with 100 μL of binding buffer (10 mM HEPES/NaOH, 140 mM Nacl, 2.5 mM CaCl2, PH 7.4). A total of 5 μL of FITC-conjugated annexin V and 5 μL of PI ([…]) were added into the cell suspension, and the mixture was incubated in a dark place at room temperature for 15 min. The cells were analyzed using FACS cater-plus flow cytometry (guava easy cyte^TM); at least 10,000 cells per each group were counted.

For data set [10], the system named is A2780 cells. Put plainly: Cell cycle analysis (PI staining, flow cytometry), A2780. The format is cell-based, human. The note with it: A2780, 48 h. The procedure: (§5) The cells were treated with (−)-asarinin (1) and incubated for 48 h. At the time of collection, the cells were harvested and washed twice with ice-cold phosphate buffered saline (PBS). The cells were fixed and permeabilized with 70% ice-cold ethanol at −20 °C for 4 h. The cells were washed once with PBS and resuspended in a staining solution containing propidium iodide (50 µg/mL) and RNase A (5 mg/mL). The cell suspensions were incubated for 30 min at room temperature in a dark place. After 30 min the suspensions were analyzed by fluorescence-activated cell sorting (FACS) cater-plus flow cytometry (guava easy cyte^TM, Merk Millipore, Darmstadt, Germany) using 5000 cells per group.
A general note: A flow cytometer gives signals particle by particle.

The test system of data set [11] is A2780 cells. Put plainly: PI/Annexin V-FITC double staining, A2780. Format: cell-based, human. The note with it: A2780, 48 h, increased by up to. The procedure: as §4
The test system of data set [12] is human leukemia HL-60 cells. Also noted: method as in PMID 11507740. The note with it: cited from earlier work.
The test system of data set [13] is caspase-8. Put plainly: Western blot caspase activation, A2780. The format is cell-based, human. The note with it: A2780, 48 h, procaspase level by Western blot. The procedure:
as §3

The subject of data set [14] is caspase-9. The data set can be described thus: Western blot caspase activation, A2780. Format: cell-based, human. The note with it: A2780, 48 h, procaspase level by Western blot. The procedure:
as §3

The subject of data set [15] is caspase-3. The data set can be described thus: Western blot caspase activation, A2780. The format is cell-based, human. The conditions noted are these: A2780, 48 h, procaspase level by Western blot. The procedure: as §3
The subject of data set [16] is SKOV3 cells. Put plainly: Cell cycle analysis (PI staining, flow cytometry), SKOV3. The format is cell-based, human. The note with it: SKOV3, 48 h. The procedure:
as §5

[17] abbreviates: IOSE80PC immortalized ovarian surface epithelial cells.

In the case of z-DEVD-fmk, the “effect on (−)-asarinin (1)-induced cell death” value (“effect on (−)-asarinin” below) in the data set with SKOV3 cells [1] and in the data set with A2780 cells [2] was “considerably attenuated” each time.

As usually defined, the IC50 is the midpoint of a concentration-inhibition curve. `C/C=C\CC/C=C/C=C/C(=O)NCC(C)C` [Compound 7, (2E,4E,8Z)-N-isobutyldeca-2,4,8-trienamide] had an IC50 at 48 h in data set [3] (setting [17]) above 200 µM. Further, the IC50 is above 200 µM with A2780 cells [4] (A2780, MTT, 48 h) and above 200 µM in the data set on SKOV3 cells [5] (SK-OV-3, SKOV3, MTT, 48 h).

In the case of `c1cc2c(cc1[C@H]1OC[C@H]3[C@@H]1CO[C@H]3c1ccc3c(c1)OCO3)OCO2` [Compound 1, (−)-asarinin], in the data set on EBV-EA activation, the “effect on EBV-EA activation” value is “significant inhibitory effect”. The “activation of caspase-8” value in the data set on caspase-8 [6] and in the data set on caspase-8 [13] was “markedly stimulated the activation” throughout. The “activation of caspase-9” value with caspase-9 [7] and in the data set on caspase-9 [14] was “markedly stimulated the activation” throughout. Also, the “activation of caspase-3” value in the data set with caspase-3 [8] and in the data set with caspase-3 [15] was “markedly stimulated the activation” throughout. Further, the concentration for half-maximal inhibition (IC50) at 48 h in data set [3] was above 200 µM. In the data set with IOSE80PC cells, the “cytotoxicity (in words)” value is “did not show any cytotoxicity”. Moreover, the IC50 in the data set on A2780 cells [4] (A2780, 48 h) amounted to 38.5 ± 2.78 µM; with SKOV3 cells [5] (SK-OV-3, 48 h), 60.9 ± 5.01 µM. For the same compound, the “percentage of Annexin V-FITC positive/PI negative cells” value with SKOV3 cells [9] is on record as at most 48%; with A2780 cells [11], “up to 43%”. Moreover, the cell cycle arrest entry with A2780 cells [10] and in the data set on SKOV3 cells [16] was “failed to induce cell cycle arrest” in each case. Moreover, the DNA synthesis entry in [12] is on record as “inhibited DNA synthesis”.

The compound `CCC(=O)c1cc2c(cc1O)OCO2` [Compound 3, kakuol] had an IC50 at 48 h in data set [3] above 200 µM. Also, the IC50 was above 200 µM in the data set on A2780 cells [4] (A2780, 48 h) and above 200 µM in the data set on SKOV3 cells [5] (SK-OV-3, 48 h).

Compound `CCC(=O)c1cc2c(cc1OC)OCO2` [Compound 4, methylkakuol] showed an IC50 at 48 h in [3] above 200 µM. The IC50 in the data set on A2780 cells [4] (A2780, 48 h) was above 200 µM; in the data set with SKOV3 cells [5] (SK-OV-3, 48 h), above 200 µM.

z-IETD-fmk: the “effect on (−)-asarinin” value with SKOV3 cells [1] and in the data set on A2780 cells [2] was “considerably attenuated” in each case.

In the case of `C/C=C/C=C\CC/C=C/C=C/C(=O)NCC(C)C` [Compound 8, (2E,4E,8Z,10E/Z)-N-isobutyldodeca-2,4,8,10-tetraenamide], the half-inhibitory concentration (IC50) at 48 h in [3] (setting [17]) was above 200 µM. For the same compound, the half-maximal inhibitory concentration (IC50) is 101 ± 10.3 µM in the data set on A2780 cells [4] (A2780, MTT, 48 h) and above 200 µM with SKOV3 cells [5] (SK-OV-3, SKOV3, MTT, 48 h).

For `COc1cc([C@@H]2OC[C@@H]3[C@H]2CO[C@H]3c2ccc3c(c2)OCO3)ccc1O` [Compound 2, (−)-pluviatilol], in data set [3] (setting [17]), it took 179 ± 3.3 µM to reach half-maximal inhibition (IC50 at 48 h). In addition, the IC50 with A2780 cells [4] (A2780, MTT, 48 h) is 102 ± 13.6 µM; with SKOV3 cells [5] (SK-OV-3, SKOV3, MTT, 48 h) it was 174 ± 9.42 µM.

As to z-LEHD-fmk, the “effect on (−)-asarinin” value with SKOV3 cells [1] and in the data set with A2780 cells [2] was “considerably attenuated” in each case.
